Consider two molecules from paper PMC9496321, “6-Furopyridine Hexamethylene Amiloride Is a Non-Selective P2X7 Receptor Antagonist” (Biomolecules, 2022).

For one experiment, the target named is T1, hP2X7 (Homo sapiens, UniProt Q99572).
T1 construct: expressed in transfected cells; host or cells: HEK293 cells, stably transfected (HEK-hP2X7)
T1 sequence (Q99572 1-595): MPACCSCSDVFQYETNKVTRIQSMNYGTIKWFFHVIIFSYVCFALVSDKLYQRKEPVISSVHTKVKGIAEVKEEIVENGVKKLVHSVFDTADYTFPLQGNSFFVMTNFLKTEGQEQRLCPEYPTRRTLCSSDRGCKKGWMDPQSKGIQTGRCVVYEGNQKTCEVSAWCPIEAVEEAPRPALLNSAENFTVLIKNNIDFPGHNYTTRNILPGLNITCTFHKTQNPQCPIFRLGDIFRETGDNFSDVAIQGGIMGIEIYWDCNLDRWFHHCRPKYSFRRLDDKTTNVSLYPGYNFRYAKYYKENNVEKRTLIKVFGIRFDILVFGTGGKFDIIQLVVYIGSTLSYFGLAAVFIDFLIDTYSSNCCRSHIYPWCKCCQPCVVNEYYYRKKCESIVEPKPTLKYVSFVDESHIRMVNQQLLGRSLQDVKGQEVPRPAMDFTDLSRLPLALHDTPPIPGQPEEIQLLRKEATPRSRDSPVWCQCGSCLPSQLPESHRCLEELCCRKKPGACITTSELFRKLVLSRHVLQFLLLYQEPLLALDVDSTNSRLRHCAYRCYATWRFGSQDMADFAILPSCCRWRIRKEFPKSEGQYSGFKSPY
Nature of the experiment: ATP-induced ethidium+ uptake in stably transfected HEK-hP2X7 cells (flow cytometry). It counts as cell-based. To be noted: for EC50: EC50 of ATP; for maximum ATP response, ethidium+ uptake: increasing ATP.

In a further experiment the target is T2, endogenous hP2X7 (Homo sapiens, UniProt Q99572).
T2 construct: endogenous in cells; host or cells: RPMI8226 cells
T2 sequence (Q99572 1-595): T1 sequence (Q99572 1-595)
Nature of the experiment: ATP-induced ethidium+ uptake in RPMI8226 multiple myeloma cells (flow cytometry). The format is cell-based. Background: Flow cytometry measures light scatter and fluorescence of single cells or particles in a stream.

In another experiment the target is T3, mP2X7 (Mus musculus, UniProt Q9Z1M0).
T3 construct: expressed in transfected cells; host or cells: HEK293 cells, transient transfection, GFP+ cells gated
T3 sequence (Q9Z1M0 1-595): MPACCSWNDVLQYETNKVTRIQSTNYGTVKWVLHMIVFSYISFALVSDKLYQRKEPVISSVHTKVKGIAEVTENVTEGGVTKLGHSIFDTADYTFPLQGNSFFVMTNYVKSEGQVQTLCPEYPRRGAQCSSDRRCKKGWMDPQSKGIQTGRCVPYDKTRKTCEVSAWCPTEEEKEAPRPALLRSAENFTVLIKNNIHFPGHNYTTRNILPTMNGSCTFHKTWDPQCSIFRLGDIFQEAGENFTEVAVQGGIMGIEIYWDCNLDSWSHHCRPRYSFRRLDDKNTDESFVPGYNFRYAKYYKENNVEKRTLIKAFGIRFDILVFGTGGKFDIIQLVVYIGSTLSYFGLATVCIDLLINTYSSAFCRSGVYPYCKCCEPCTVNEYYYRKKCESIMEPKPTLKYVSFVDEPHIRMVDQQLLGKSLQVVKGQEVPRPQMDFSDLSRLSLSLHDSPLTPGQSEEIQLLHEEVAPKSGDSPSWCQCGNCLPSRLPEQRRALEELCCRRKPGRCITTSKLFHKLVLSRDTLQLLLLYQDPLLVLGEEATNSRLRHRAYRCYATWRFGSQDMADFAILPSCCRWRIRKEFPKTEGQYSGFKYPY
Nature of the experiment: ATP-induced ethidium+ uptake in transfected HEK-mP2X7 cells. The format is cell-based, murine. As for the experimental part: (§1) HEK293 cells were plated at 3.5 × 10^5 cells/well in 2 mL of complete DMEM/F12 medium and incubated (37 °C, 95% air/5% CO2, overnight). Cells were transfected with mP2X7-GFP (HEK-mP2X7), cP2X7-GFP (HEK-cP2X7) or hP2X4-EmGFP (HEK-hP2X4) plasmids, or mock transfected with an equivalent volume of sterile Milli-Q water (Merck Millipore, Burlington, NJ, USA), using Lipofectamine 3000 according to the manufacturer’s instructions. Cells were used for assays 48 h post-transfection. To determine transfection efficiency, cells were washed twice with D-PBS and data collected with an LSR Fortessa X-20 flow cytometer (BD Biosciences). The proportion of GFP positive cells was determined using FlowJo software v8.7.1 (BD Biosciences).
(§2) ATP-mediated uptake assays were conducted as described with either ethidium bromide or YO-PRO-1 iodide. Briefly, RPMI8226, HEK-hP2X7, HEK-mP2X7, HEK-cP2X7 or cryopreserved human peripheral blood mononuclear cells (PBMCs) were washed thrice with LDM (300× g, 5 min), resuspended in LDM and 1 × 10^6 cells were added to individual tubes. Cells were pre-incubated in the absence of compound (37 °C, 5 min) or in the presence of compound or vehicle (DMSO) (37 °C, 15 min) as indicated. […] An equal volume of ice-cold Mg^2+ stop solution was added and cells centrifuged (300× g, 5 min). Cells were washed twice in LDM (300× g, 5 min), resuspended and data were collected with an LSR Fortessa X-20 flow cytometer. MFI of ethidium^+ or YO-PRO-1^2+ was determined using FlowJo.

Another experiment has as its target T4, cP2X7 (Canis lupus familiaris, UniProt B0FLR1).
T4 sequence (B0FLR1 1-595): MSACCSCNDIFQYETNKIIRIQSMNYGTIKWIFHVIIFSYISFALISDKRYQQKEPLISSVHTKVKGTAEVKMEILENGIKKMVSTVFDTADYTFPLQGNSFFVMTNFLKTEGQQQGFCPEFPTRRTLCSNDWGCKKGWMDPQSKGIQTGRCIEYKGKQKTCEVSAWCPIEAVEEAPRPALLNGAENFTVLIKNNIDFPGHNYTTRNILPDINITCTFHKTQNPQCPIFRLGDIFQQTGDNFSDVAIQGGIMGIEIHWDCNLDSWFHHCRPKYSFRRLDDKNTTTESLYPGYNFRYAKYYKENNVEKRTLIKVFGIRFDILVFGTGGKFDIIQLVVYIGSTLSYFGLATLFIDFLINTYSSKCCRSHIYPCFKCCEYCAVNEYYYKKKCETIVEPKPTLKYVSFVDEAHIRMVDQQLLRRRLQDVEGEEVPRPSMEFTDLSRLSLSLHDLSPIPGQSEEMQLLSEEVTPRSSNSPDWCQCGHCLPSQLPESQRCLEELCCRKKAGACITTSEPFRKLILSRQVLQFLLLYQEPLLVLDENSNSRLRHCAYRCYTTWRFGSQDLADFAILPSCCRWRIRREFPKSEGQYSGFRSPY
The experiment is described as follows: ATP-induced ethidium+ uptake in transfected HEK-cP2X7 cells. It counts as cell-based, canine. As for the experimental part: as §1, §2

The mark [1] stands for this setting: read-out: IC50, hP2X7-mediated dye uptake.

On to `Nc1ncnc2c1ncn2[C@@H]1O[C@H](COP(=O)(O)OP(=O)(O)OP(=O)(O)O)[C@@H](O)[C@H]1O` [ATP, adenosine 5′-triphosphate], for which the EC50 at hP2X7 (ethidium+ uptake, HEK-hP2X7 cells, no antagonist (Figure 2C)) came to 466 ± 17 µM; on hP2X7 (ethidium+ uptake, in presence of 0.3 μM 6-FPHMA), 464 ± 52 µM; on hP2X7 (ethidium+ uptake, in presence of 3 μM 6-FPHMA), 517 ± 49 µM; on hP2X7 (ethidium+ uptake, in presence of 30 μM 6-FPHMA), 557 ± 47 µM; at hP2X7 (ethidium+ uptake, pre-incubated with DMSO vehicle (Figure 2E)), 419 ± 24 µM; on endogenous hP2X7 (RPMI8226 cells, no antagonist), 311 ± 21 µM. The EC50 was found to be 364 ± 48 µM on mP2X7 (GFP+ HEK-mP2X7 cells) and 424 ± 67 µM on cP2X7. The “ATP concentration giving maximum response, ethidium+ uptake” value at mP2X7 (HEK-mP2X7 cells) and on cP2X7 (HEK-cP2X7 cells) was 2 mM each time.
As for `N=C(N)NC(=O)c1nc(-c2cc3cnccc3o2)c(N2CCCCCC2)nc1N` [6-FPHMA, 6-furopyridine-substituted 5-(N,N-hexamethylene) amiloride], the results for the “maximum ATP response, ethidium+ uptake” value at hP2X7 (0.3 μM 6-FPHMA), at hP2X7 (3 μM 6-FPHMA) and at hP2X7 (30 μM 6-FPHMA) were 90 ± 4%, 52 ± 3% and 13 ± 1%, respectively. The “blockade of hP2X7-mediated dye uptake” value is recorded as 95% at hP2X7 (100 μM compound, 450 μM ATP, HEK-hP2X7 cells) and 100% at endogenous hP2X7 (30 μM compound, 300 μM ATP, RPMI8226 cells). Also, at hP2X7 (ethidium+ uptake, HEK-hP2X7 cells), the mode of inhibition entry is “non-competitive”. Also, the IC50 on hP2X7 (setting [1]) was determined as 1.63 ± 0.42 µM; on endogenous hP2X7 (setting [1]), 0.58 ± 0.05 µM; at mP2X7 (read-out: IC50, mP2X7-mediated dye uptake) it was 23 ± 2.4 µM; at cP2X7 (read-out: IC50, cP2X7-mediated dye uptake), 1.28 ± 0.47 µM. For the same molecule, at mP2X7 (100 μM compound, 360 μM ATP), the “blockade of mP2X7-mediated dye uptake” value is reported as 96%. For the same molecule, the “activity against murine P2X7 relative to hP2X7 and cP2X7” value on mP2X7 (comparison of IC50 values) is listed as “ten-fold less active”. Moreover, the inhibition at 30 µM at cP2X7 (read-out: blockade of cP2X7-mediated dye uptake) was 100%.

By EC50 is commonly meant the concentration that produces a half-maximal response. Broadly, the IC50 is the concentration that inhibits the measured activity by half.
